Data reported in patent publication US10758560B2, “Methods for treating sarcopenia and frailty” (NESTEC S.A., priority 2015, dated 2020).

How the values were obtained:
[1] = system: neuromuscular junctions (nerve and muscle co-cultures); experiment: Nerve and muscle co-cultures, beta-amyloid (2.5 μM) induced damage of neuromuscular junctions; type: cell-based; conditions: for protection from Ab-induced damage (neuromuscular junction size, number and neurite network): 1 or 100 nM, FIG. 4
Experimental: Nerve and muscle co-cultures were grown in vitro until neuromuscular junctions were mature. Damage was induced using beta-amyloid (Ab) incubation (2.5 μM) and riluzole (5 μM) was used as a positive control for preserving neuromuscular junctions from Ab-induced damage.
The effect of neuregulin-1 (NRG1; various concentrations, as specified in FIG. 2) on Ab-induced damage was evaluated by measuring the neuromuscular junction (NMJ) size. 6 wells per group were analysed and compared to a control condition. The uninjured control condition is the neuromuscular junction size without Ab treatment. All other conditions are to be compared to the Ab treatment alone which represents the reference value for damaged neuromuscular junction size.
Nerve and muscle co-cultures were grown in vitro until neuromuscular junctions were mature. Damage was induced using beta-amyloid (Ab) incubation (2.5 μM) and riluzole (5 μM) was used as a positive control for preserving neuromuscular junctions from Ab-induced damage. The effect of methylcobalamin (MeCbl; 1 or 100 nM) and adenosylcobalamin (AdenoCbl; 1 or 100 nM) on Ab-induced damage was evaluated by measuring the neuromuscular junction (NMJ) number and size, and the neurite network. 6 wells per group were analysed and compared to a control condition (CTL). The uninjured control condition is the neuromuscular junction size without Ab treatment. All other conditions are to be compared to the Ab treatment alone which represents the reference value for damaged neuromuscular junction size.

[2] = system: Tibialis anterior muscle fibers; experiment: Effect of vitamin B12 on skeletal muscle in vivo: tibialis anterior fiber size in aged rats; design: species or system rat; conditions: 1 mg/kg s.c. 3 times per week for 5 months, type 2A fibers, FIG. 6
Experimental: Pre-sarcopenic rats aged 16 months were treated for 5 months with either adenosylcobalamin (AdoCbl, C0884, Sigma aldrich), methylcobalamin (MeCbl, M9756, Sigma aldrich) or saline. AdoCbl and MeCbl were injected sub-cutaneously at 1 mg/kg body weight 3 time per week. Tibialis Anterior (TA) was then dissected out and frozen for further analyses. For histology, TA was cryo-sectioned at 10 μm and stained with laminin (L9393, Sigma aldrich) to delineate fibers. Specific fiber types 1, 2A and 2B were immunolabeled subsequently with appropriate antibodies (clones BADS, BFF3, and SC71 respectively, DSHB). Images were acquired using a slide scanner (VS-120, Olympus) and analyzed using an in-house MetaXpress journal (Molecular Devices, Sunnyvale, USA). Images from old animals were compared to a group of adult healthy rats (8 months at start of experiment) injected with saline control. For gene expression analysis, total RNA was extracted using the miRNeasy Mini Kit (Qiagen) according to the manufacturer's instruction and RNA quality was checked using the Standard Sensitivity RNA Analysis Kit on a Fragment Analyzer (Advanced Analytical Technologies). Samples were then hybridized on Affymetrix Rat 230 PM 96-Array following standard Affymetrix protocol, based on the Eberwine T7 procedure. […]

[3] = system: neuromuscular junctions (nerve and muscle co-cultures); experiment: Nerve and muscle co-cultures, stronger beta-amyloid (10 μM) induced damage of neuromuscular junctions; type: cell-based; conditions: longer incubation, NRG1 30 nM and/or AdoCbl 1 nM, FIG. 5
Experimental: Nerve and muscle co-cultures were grown in vitro until neuromuscular junctions were mature. Damage was induced using beta-amyloid (Ab) incubation (10 μM) and riluzole (5 μM) was used as a positive control for preserving neuromuscular junctions from Ab-induced damage. The effect of neuregulin-1 (NRG1; 30 nM) and/or adenosylcobalamin (AdoCbl; 1 nM) on Ab-induced damage was evaluated by measuring the neuromuscular junction (NMJ) size or number. 6 wells per group were analysed and compared to a control condition (CTL) without Ab-induced damage.

HSMM human myoblasts = experiment: TNFa-induced myotube atrophy in HSMM human myoblasts (fusion index); type: cell-based; conditions: TNFa 40 ng/ml for 4 days; 1 nM; FIG. 7
Experimental: HSMM human myoblasts were grown in vitro and induced to differentiate into mature myotubes. Myotube atrophy was induced by incubation with TNFa at 40 ng/ml for 4 days. MeCbl (1 nM) and AdoCbl (1 nM) were incubated together with TNFa to test their effect on induced atrophy. IGF1 is used as a positive control at 15 nM to prevent muscle atrophy. After 4 days of treatment, cells were stained for nuclei and myosin heavy chain to quantify the proportion of nuclei inside myotubes (i.e fusion index).

[4] = system: hind-limb skeletal muscle; experiment: Age-induced atrophy of skeletal muscle in pre-sarcopenic rats (hind-limb skeletal muscle mass); type: in vivo, rat; conditions: pre-sarcopenic rats aged 16 months, 1 μg/kg s.c. 3 times per week for 5 months, versus saline controls; FIG. 3
Experimental: Pre-sarcopenic rats aged 16 months were treated for 5 months with either neuregulin-1 (NRG1; NRG1 beta EGF domain from Reprokine (catalog number RKQ02297)) or saline. NRG1 was injected sub-cutaneously at 1 μg/kg body weight 3 time per week. Hind-limb skeletal muscle mass was then evaluated and compared to a group of adult healthy rats (8 months at start of experiment) injected with saline control. […]

Row | Molecule | protection from Ab-induced damage (neuromuscular junction size, number and neurite network) [1] | increase in muscle fiber size [2] | rescue of neuromuscular junctions (number and size) from stronger Ab-induced damage [3] | protection from muscle atrophy (fusion index) (HSMM human myoblasts) | hind-limb skeletal muscle mass [4] | protection of the neuromuscular system from Ab-induced damage (neuromuscular junction size) ([1]; NRG1 at a dose of 30 nM, FIG. 2)
1 | C/C1=C2/[N-][C@H]([C@H](CC(N)=O)[C@@]2(C)CCC(=O)NC[C@@H](C)OP(=O)([O-])O[C@H]2[C@@H](O)[C@@H](n3cnc4cc(C)c(C)cc43)O[C@@H]2CO)[C@]2(C)N=C(/C(C)=C3N=C(/C=C4N=C1[C@@H](CCC(N)=O)C\4(C)C)[C@@H](CCC(N)=O)[C@]\3(C)CC(N)=O)[C@@H](CCC(N)=O)[C@]2(C)CC(N)=O.[CH2-][C@H]1O[C@@H](n2cnc3c(N)ncnc32)[C@H](O)[C@@H]1O.[Co] [adenosylcobalamin, Adenosylcobalamin] | able to protect the system at both doses tested | able to induce an increase in muscle fiber size | neither neuregulin-1 nor adenosylcobalamin alone could rescue the system | – | – | –
2 | C/C1=C2/[N-][C@H]([C@H](CC(N)=O)[C@@]2(C)CCC(=O)NC[C@H](C)OP(=O)([O-])O[C@H]2[C@@H](O)[C@@H](n3cnc4cc(C)c(C)cc43)O[C@@H]2CO)[C@]2(C)N=C(/C(C)=C3N=C(/C=C4N=C1[C@@H](CCC(N)=O)C\4(C)C)[C@@H](CCC(N)=O)[C@]\3(C)CC(N)=O)[C@@H](CCC(N)=O)[C@]2(C)CC(N)=O.[CH3-].[Co+3] [methylcobalamin, Methylcobalamin] | not methylcobalamin, was also able to protect the system | not methylcobalamin, was also able to induce an increase in muscle fiber size | – | able to protect from muscle atrophy | – | –
3 | neuregulin-1: NRG1 beta EGF domain from Reprokine (catalog number RKQ02297); SEQ ID NO: 7 (protein, listed as Homo sapiens) SHLVKCAEKEKTFCVNGGECFMVKDLSNPSRYLCKCPNEFTGDRCQNYVMASFYKHLGIEF | – | – | neither neuregulin-1 nor adenosylcobalamin alone could rescue the system | – | significantly higher mass compared to controls | able to protect the neuromuscular system from damage
